This is an account of results in paper PMC11082890, “Phenazine Cations as Anticancer Theranostics” (Journal of the American Chemical Society, 2024).

Common to all, as to assay: MTT cytotoxicity assay, 48 h
What all share (assay type): cell-based
In general terms: Tetrazolium dyes change colour on reduction, which living cells bring about.

The test system of assay [1] is A2780CIS human ovarian cisplatin resistant cells. To be noted: 48 h treatment, value (S.D.). On the procedure:
(§1) First, the cytotoxicity of 1^2+ and 2^2+ toward several cancer cell lines was examined. The viability of cells exposed to their chloride salts was assessed by an MTT (3-(4,5-dimethylthiazol-2-yl)-2,5-diphenyltetrazolium bromide) assay, and the common chemotherapeutic agent cisplatin was employed as a positive control, Figure 3.
(§2) S2. Tissue Culture and Microscopy Methods
(§3) Cell media was purchased sterile from Sigma-Aldrich. A2780 human ovarian cancer cells and A2780CIS human ovarian cisplatin resistant cells were cultured in RPMI-1640 medium. MCF7 human breast cancer cells, T24 human bladder cancer cells and HEK293 human embryonic kidney cells were cultured in DMEM medium. All growth medium was supplemented with 10 % fetal bovine serum (FBS), 2 mM L-Glutamine, 100 IU mL-1 penicillin and 100 μg mL-1 streptomycin and sterile filtered before use. Cell cultures were grown by incubation at 37 ᵒC with 5 % CO2 and were frequently passaged with trypsin when confluency of around 80 % was reached.
(§4) All cells used were at passage numbers below 50.
(§5) S2b. Preparation of Compounds
(§6) Stock solutions of compounds were solubilized in 10 % PBS (Phosphate Buffer Saline) and 90 % media.
(§7) Solutions were then sterile filtered through a 0.22 μm filter prior to use.
(§8) S2c. Cytotoxicity (MTT Assay) and Determination of IC50 Values
(§9) MTT (3-(4,5-Dimethylthiazol2-yl)-2,5-diphenyltetrazolium bromide)) is a yellow tetrazolium salt that is reduced to formazan in metabolically active cells. Therefore, the purple coloured formazan can be dissolved and quantified through absorbance as a measure of cell viability. Cells were seeded in 48 well plates at a density of 5 x 10^4 cells per well and incubated for 24 hours prior to treatment. After 24 hours, compound (10 % PBS:
(§10) 90 % medium) was added over a concentration gradient from 0.1 to 100 μM with each concentration in triplicate. Some wells were treated with a concentration range of cisplatin as a positive control. Cells were incubated with the relevant concentrations of compound for 48 hours, after which the media was removed and replaced with MTT (0.5 mg mL-1 in serum-free medium) for a period of 30-45 minutes. The MTT solution was then carefully removed and the formazan eluted with isopropanol (130 μL per well). 100 μL from each well was transferred into a 96 well plate to enable quantification of cell viability using a plate reader measuring absorbance at 570 nm. An average absorbance was obtained for each concentration and the cell viability was then calculated as a percentage of the untreated negative control wells. A graph of cell viability against concentration was plotted and the IC50 (the concentration at which the cell viability is 50 %) determined by interpolation. The IC50 values are reported as an average of at least 3 independent biological replicates. […]
(§11) All plates were then incubated for another 24 hours following light treatment. Media was then removed from each well and replaced with MTT (0.5 mg mL-1 in serum-free medium) for 30-45 minutes. […]
(§12) The data was then plotted as a graph of cell viability against concentration to determine the IC50 values by interpolation before and after light treatment.

For assay [2], the system named is T24 human bladder cancer cells. To be noted: T24, 48 h treatment, value (S.D.). On the procedure: as §1, §2, §3, §4, §5, §6, §7, §8, §9, §10, §11, §12
The test system of assay [3] is MCF7 human breast cancer cells. As to conditions: MCF7, 48 h treatment, value (S.D.). How it is done:
as §1, §2, §3, §4, §5, §6, §7, §8, §9, §10, §11, §12

The test system of assay [4] is HEK293 human embryonic kidney cells. To be noted: HEK293 noncancerous cells, 48 h treatment, value (S.D.). How it is done:
as §1, §2, §3, §4, §5, §6, §7, §8, §9, §10, §11, §12

Assay [5] has as its system A2780 human ovarian cancer cells. To be noted: A2780, 48 h treatment, value (S.D.). How it is done:
as §1, §2, §3, §4, §5, §6, §7, §8, §9, §10, §11, §12

By IC50 is commonly meant the concentration that gives 50% inhibition. Low values mean greater potency, high ones weaker potency. Turning to `N.N.[Cl][Pt][Cl]` [cisplatin], the IC50 is 19 µM in assay [1]; 3 µM in assay [2]; 26 µM in assay [3]; 5 µM in assay [4]; 1.3 µM in assay [5].
